The source of these data is patent US11446263B2, “Caspase inhibitor-containing drug for treating or preventing disorders caused by TGF-β, and applications thereof” (The Doshisha, priority 2015, dated 2022).

The structures appear in SMILES notation.

For assay [1], the system named is immobilized Fuchs' endothelial corneal dystrophy patient derived cells (iFECD). Kind of assay: Cell damage in iFECD due to TGF-β2, phase difference microscope (Example 9). The assay is classed as cell-based, human. Particulars: TGF-β2 10 ng/mL, inhibitor 10 μM, 24 hours. Here is the method:
1.2×10^5 iFECDs were seeded on a 12-well plate coated without coating and were cultured for 24 hours under the condition of 5% CO2 at 37° C. Dulbecco's Modified Eagle Medium (nacalai tesque, 26252-94)+10% FBS (Biological Industries/04-001-1A)+1% Penicillin-Streptomycin (nacalai tesque, 26252-94) was used as the medium.
After 24 hours from seeding, each inhibitor was added at a concentration of 10 μM and the cells were incubated for 24 hours under the condition of 5% CO2 at 37° C. The medium was exchanged for the control group and the TGF-β2 group. DMEM+2% FBS+1% P/S was used as the medium.
SB431542 (Wako Pure Chemical Industries, Ltd./192-16541); Z-VAD-FMK (Peptide Institute/3188-v); Z-VD-FMK (isomer mixture) (Wako Pure Chemical Industries, Ltd./262-02061); and emricasan (CHEMSCENE, LLC/CS-0599).
Next, TGF-β2 (manufacturer: R&D Systems, Inc., distributor: Wako Pure Chemical Industries, Ltd./manufacturer codes 302-B2-002, 302-B2-010, distributor codes: 553-62881, 5-59-62883) (10 ng/mL) alone, or both TGF-β2 (10 ng/mL) and each inhibitor (10 μM) were added. After 24 hours, cell morphology and programmed cell death were observed using a phase difference microscope.

Assay [2] deals with p-Smad2. Kind of assay: p-Smad2 western blot in iFECD with TGF-β2 (Example 17). The assay is classed as cell-based, human. The following applies: TGF-β2 10 ng/mL, inhibitor 10 μM, 24 hours. Here is the method:
IFECDs were seeded at 1.0×10^5 each on a 12-well plate and cultured at 37° C. (5% CO2) until reaching 60 to 70% confluence. Dulbecco's Modified Eagle Medium (DMEM, nacalai tesque, 08456-36)+10% FBS (Thermo Fisher Scientific, S1820-500)+1% penicillin-streptomycin (nacalai tesque, 26252-94) was used as the medium. SB431542 (Wako Pure Chemical Industries, Ltd./192-16541), Z-VD-FMK (isomer mixture) (Wako Pure Chemical Industries, Ltd./262-02061), and emricasan (CHEMSCENE, LLC/CS-0599) were then added at a concentration of 10 μM, and the cells were incubated for 24 hours. The medium was exchanged in the control group and the TFG-β2 supplemented group. DMEM+2% FBS+1% P/S was used as the medium. TGF-β2 alone (10 ng/mL), or both TGF-β2 (10 ng/mL) and each inhibitor (10 μm) were added. After 24 hours, proteins were collected by the following method.
The medium was collected on ice to collect free and dead cells. The solution from washing the cells twice with 1×PBS (−) was also collected, and was centrifuged at 4° C. at 800×g for 15 minutes. The supernatant was discarded to obtain precipitates. […]
Chemi Lumi ONE Ultra (nacalai tesque, 11644-40) was used for detection. The detected band strength was analyzed with Amersham™ Imager 600 (GE Healthcare).
(In general: A western blot detects proteins with antibodies after separation by electrophoresis.)

The subject of assay [3] is fibronectin. The experiment in a line: Fibronectin production due to TGF-β2 in iFECD, immunostaining and western blot (Example 17). The assay is classed as cell-based, human. The following applies: TGF-β2 10 ng/mL, inhibitor 10 μM, 24 hours. The method, then:
Round glass was placed on a 24-well plate, disinfected for 5 minutes with ethanol, and coated with laminin-511 E8 Fragment. Then, iFECDs were seeded at 4.0×10^5 each and cultured at 37° C. (5% CO2) until reaching 60 to 70% confluence. Dulbecco's Modified Eagle Medium (DMEM, nacalai tesque, 08456-36)+10% FBS (Thermo Fisher Scientific, S1820-500)+1% penicillin-streptomycin (nacalai tesque, 26252-94) was used as the medium. SB431542 (Wako Pure Chemical Industries, Ltd./192-16541), Z-VD-FMK (isomer mixture) (Wako Pure Chemical Industries, Ltd./262-02061), and emricasan (CHEMSCENE, LLC/CS-0599) were then added at a concentration of 10 μM, and the cells were incubated for 24 hours. The medium was exchanged in the control group and the TFG-β2 supplemented group. DMEM+2% FBS+1% P/S was used as the medium. TGF-β2 alone (10 ng/mL), or both TGF-β2 (10 ng/mL) and each inhibitor (10 μM) were then added. After 24 hours, immunostaining was performed by the following method.
Cells after 24 hours form stimulation were washed with PBS (−) and immobilized with 4% PFA for 10 minutes at room temperature. 0.5% Triton was used for 5 minutes for permeation treatment, and 1% BSA was used for blocking for 1 hour. […] A confocal microscope (Leica Microsystems CMS GmcH Am Friendensplatz 3 68165 Mannheim, Germany) was used to observe fluorescence. […]

Assay [4] relates to rabbit cornea. The experiment in a line: Cornea preservation using rabbit cornea in Optisol-GS (Example 11). The assay is classed as cell-based. The following applies: 2 weeks of preservation at 4° C., 10 μM in Optisol-GS. Here is the method:
Rabbit eye balls after 0 to 24 hours from euthanasia were used in the experiment. Under a stereoscopic microscope, the sclera was excised using spring scissors along the corneal limbus, and the lens and iris were removed to prepare a sclerocornea fragment. The sclerocornea fragment was divided into two pieces as the control group and emricasan supplemented groups. After dividing the cornea, the control group was left standing in DMSO supplemented Optisol-GS® (Bausch & Lomb) and the caspase inhibitor supplemented groups were left standing in Optisol-GS® supplemented with emricasan for 2 weeks at 4° C.
After washing the sclerocornea fragment with PBS (−), the fragment was immobilized with 4% formaldehyde for 10 minutes at room temperature (RT) and incubated for 60 minutes with 1% bovine serum albumin (BSA). Antibodies to N-cadherin (BD Bioscience) and ZO-1 (Zymed Laboratories) were used at 1:300 dilution. For secondary antibodies, Alexa Fluor® 488 labeled goat anti-mouse IgG (Life Technologies, A11009) was used at a dilution of 1:1000. A 1:400 dilution of phalloidin (Life Technologies) 546 was used for actin staining. […] Fluorescence was observed using a confocal microscope (TCS SP2 AOBS; Leica Microsystems, Wetzlar Germany). Cells found to have actin contractile rings under a fluorescence microscope were counted to measure the ratio.

Assay [5] has as its system caspase 3. The experiment in a line: Western blot of caspase 3 after UV irradiation (Example 2). The format is cell-based, monkey. The following applies: UV 100 J/m^2, 9 hours. The method, then:
1×10^5 cultured monkey corneal endothelial cells were seeded on a 12-well plate coated with FNC Coating Mix and were cultured until reaching confluence under the condition of 5% CO2 at 37° C. Dulbecco's Modified Eagle Medium (DMEM) (Gibco, 12320-032)+10% FBS+1% Penicillin-Streptomycin (nacalai tesque, 26252-94) was used as the medium.
Each inhibitor was added at the above concentration. The cells were incubated for 18 hours under the condition of 5% CO2 at 37° C. The control group and the UV irradiation group were supplemented with a solvent of each reagent, i.e., DMSO (Dimethyl Sulfoxide, Sterile-filtered) (nacalai tesque, 13408-64). Gibco DMEM+1% P/S (penicillin-streptomycin mixture) was used as the medium.
The cell supernatant was then removed, and the cells were irradiated with UV (100 J/m^2). After irradiation, media containing each inhibitor were added to the cells again. The cells were cultured for 9 hours.
The cell morphology was observed under a phase difference microscope. After observation, western blot was performed on proteins by the following procedure.
The medium was collected on ice to collect free and dead cells. The solution from washing the cells twice with 1×PBS (−) was also collected. 800 g was centrifuged at 4° C. for 5 minutes. The supernatant was discarded to obtain precipitates. The washed cells were supplemented with a protein extraction buffer (RIPA; 50 mM Tris-HCl (pH 7.4), 150 mM NaCl, 1 mM EDTA, 0.1% SDS, 0.5% DOC, 1% NP-40) on ice to extract proteins. The precipitates from centrifuging the free and dead cells were also subsequently suspended together for extraction. The collected solution was pulverized three times for 30 seconds in cold water with a sonication device (BIORUPTOR, TOSHO DENKI) and centrifuged for 10 min at 4° C. at 15000 rpm to collect the supernatant of proteins.
8 μg of the extracted protein was separated by SDS-PAGE and transferred onto a nitrocellulose membrane. A rabbit anti-caspase 3 antibody (Cell Signaling, 9662), rabbit anti-PARP antibody (Cell Signaling, 9542), and mouse anti-GAPDH antibody (MBL, M171-3) were used as the primary antibodies. A peroxidase-labeled anti-rabbit antibody and anti-mouse antibody (GE Healthcare Biosciences, NA934V, NA931V) were used as the secondary antibodies. For the primary antibodies, rabbit anti-caspase 3 antibody and rabbit anti-PARP antibody: 1000-fold dilution and mouse anti-GAPDH antibody: 3000-fold dilution, while the secondary antibody was diluted 5000-fold. Chemi Lumi ONE Ultra (nacalai tesque, 11644-40) was used for detection. The detected band strength was analyzed with a lumino image analyzer LAS-4000 mini (Fuji Film) and ImageQuant™ software (GE Healthcare).

For the compound `NC(=O)c1ccc(-c2nc(-c3ccc4c(c3)OCO4)c(-c3ccccn3)[nH]2)cc1` [SB431542], in assay [1], the programmed cell death entry is “suppressed”. Moreover, the “phosphorylated Smad2 (p-Smad2)” value in assay [2] is given as “not found”. The “expression / overexpression of fibronectin” value in assay [3] is recorded as “suppressed”.
In the case of `C[C@H](NC(=O)C(=O)Nc1ccccc1C(C)(C)C)C(=O)N[C@@H](CC(=O)O)C(=O)COc1c(F)c(F)cc(F)c1F` [emricasan, 3-[2-[(2-tert-butyl-phenylaminooxalyl)-amino]-propionylamino]-4-oxo-5-(2,3,5,6-tetrafluoro-phenoxy)-pentanoic acid], the “phosphorylated Smad2 (p-Smad2)” value in assay [2] is listed as “found”. In addition, the actin contractile rings entry in assay [4] is recorded as “significantly suppressed”. In addition, in assay [4], the cell damage result is “hardly any cell damage”. The “expression / overexpression of fibronectin” value in assay [3] is “suppressed”. The “inactive form cleaved caspase 3 of about 19 kDa” value in assay [5] (addition of 1 and 3 μM) is recorded as “hardly observed”; in assay [5] (other concentrations (10, 30, 100 μM)) it was “not observed”. The “active form cleaved caspase 3 of about 17 kDa” value in assay [5] (all tested concentrations) is recorded as “not observed”.
For `CC(C)[C@@]1(C(=O)N[C@H]2CC(=O)O[C@]2(O)CF)CC(c2nccc3ccccc23)=NO1` [nivocasan, (R)—N-((2S,3S)-2-(fluoromethyl)-2-hydroxy-5-oxotetrahydrofuran-3-yl)-5-isopropyl-1-3-(isoquinoline-1-yl)-4,5-dihydroisoxazole-5-carboxamide], the “effect of suppressing caspase 3” value in assay [5] (concentration of 100 μM) is reported as “observed”.
